Results as given in patent publication US20070148684A1, “IMMUNOASSAY FOR HIV PROTEASE INHIBITORS” (priority 2000, published 2007).

Test system: saquinavir antiserum
Assay: Assay specificity determination: competitive microtiter plate ELISA with saquinavir-BSA coated plate and saquinavir antiserum
Type: binding, sheep
Conditions: for dose-response of optical density at 450 nm (competition for antiserum binding): serial three-fold dilutions of drug in PBS-TWEEN, antiserum 1:12,800, 62.5 ng/ml saquinavir-BSA coat
Experimental: Corning micro-ELISA plates (96 wells) were used throughout. The saquinavir-BSA conjugate was diluted to 2 μg/ml in 0.1 M sodium carbonate buffer, pH 9.5. One hundred microliters of the buffer was placed in the wells of each row of the plate except the first row. The first row was filled with 200 μL of the 2 μg/ml saquinavir-BSA solution, and a twelve-tip micropipettor was used to transfer 100 μl from the first row to the second row of all columns at the same time. Mixing of contents of the second row was accomplished by re-pipetting 3 times. One hundred microliters from the second row was then transferred to the third row and mixed. This was repeated to the last row of the plate. After mixing, 100 μl was removed from the last row and discarded. The plate was placed in a humidified Zip-Loc bag and incubated for 1 hour at 37° C. After incubation, the plate was removed from the incubator and bag and emptied into a waste container. PostCoat solution was added to each well in the amount of 200 μl. This solution consisted of 1% gelatin hydrolysate, 2% sucrose, 0.15 M Tris, pH 7.4, 0.17% TWEEN 20 (ICI Americas Inc.), and 0.02% Thimerosal preservative. All reagents were from Sigma Chemicals. The plate was returned to the humidified bag and placed in the incubator for 1 hour. Five minutes before the incubation was complete, Zymed rabbit anti-sheep IgG-HRP conjugate was diluted 1:2000 in PBS-TWEEN and vortexed gently to completely mix. Upon completion of the hour incubation, the plate was washed 4 times with 300 μl of PBS-TWEEN using a BioTek Instruments, Inc. EL404 plate washer. One hundred microliters of the diluted rabbit anti-sheep IgG-HRP conjugate was then pipetted into each well, the plate re-bagged and incubated for 1 hour. At the completion of the hour, the plate was removed from the incubator and bag and washed six times on the plate washer. One hundred microliters of K-BLUE enzyme substrate (Neogen, Inc.) was then added to each well and color allowed to develop in the dark for 5 minutes. Color development was halted by the addition of 100 μl of 1 N hydrochloric acid to each well. The optical density of each well was measured at two wavelengths, 405 nm and 450 nm using a Molecular Devices, Inc. ThermoMax plate reader. […] Therefore, the OD405 measurements were used to calculate the extrapolated OD450 by the well-known method of using a linear least squares regression of readings at both wavelengths. An ELISA plate was coated with the above concentrations of saquinavir-BSA using the same conditions as set forth above. While the plates were being PostCoated, serial three-fold dilutions of saquinavir, ritonavir, indinavir, and nelfinavir were prepared in a 1 ml capacity 96-well plate. All drugs were prepared at 1 mg/ml in absolute methanol and stored at 4° C. until used. […]

dose-response of optical density at 450 nm (competition for antiserum binding) | SMILES | cross-reaction of the antiserum (relative to saquinavir, calculated from OD450 dose-response data) [%] | inhibition with respect to zero drug (lowest non-zero drug concentration in Example 5 (7 dilution steps)) [%]
lesser response | Cc1c(O)cccc1C(=O)N[C@@H](CSc1ccccc1)[C@H](O)CN1C[C@H]2CCCC[C@H]2C[C@H]1C(=O)NC(C)(C)C [nelfinavir] | 0.4 | –
dose-response curve | CC(C)(C)NC(=O)[C@@H]1C[C@@H]2CCCC[C@@H]2CN1C[C@@H](O)[C@H](Cc1ccccc1)NC(=O)[C@H](CC(N)=O)NC(=O)c1ccc2ccccc2n1 [saquinavir] | – | ~50
